Reference: patent US5446043A, “Isoquinolyl, quinoxalinyl and quinazolinyl derivatives as inhibitors of 5-lipoxygenase” (Imperial Chemical Industries Plc, priority 1989, dated 1995)

Columns and labels:
[1] = molecular target: T1, 5-LO (Homo sapiens, UniProt P09917); experiment: Test b) heparinised human blood challenged with A23187, LTB4 radioimmunoassay (5-LO); assay type: cell-based; conditions: read-out: IC50 against LTB4
T1 construct: incubating a test compound with heparinised human blood, prior to challenge with the calcium ionophore A23187; endogenous in cells; host or cells: blood cells in heparinised human whole blood
T1 sequence (P09917 1-674): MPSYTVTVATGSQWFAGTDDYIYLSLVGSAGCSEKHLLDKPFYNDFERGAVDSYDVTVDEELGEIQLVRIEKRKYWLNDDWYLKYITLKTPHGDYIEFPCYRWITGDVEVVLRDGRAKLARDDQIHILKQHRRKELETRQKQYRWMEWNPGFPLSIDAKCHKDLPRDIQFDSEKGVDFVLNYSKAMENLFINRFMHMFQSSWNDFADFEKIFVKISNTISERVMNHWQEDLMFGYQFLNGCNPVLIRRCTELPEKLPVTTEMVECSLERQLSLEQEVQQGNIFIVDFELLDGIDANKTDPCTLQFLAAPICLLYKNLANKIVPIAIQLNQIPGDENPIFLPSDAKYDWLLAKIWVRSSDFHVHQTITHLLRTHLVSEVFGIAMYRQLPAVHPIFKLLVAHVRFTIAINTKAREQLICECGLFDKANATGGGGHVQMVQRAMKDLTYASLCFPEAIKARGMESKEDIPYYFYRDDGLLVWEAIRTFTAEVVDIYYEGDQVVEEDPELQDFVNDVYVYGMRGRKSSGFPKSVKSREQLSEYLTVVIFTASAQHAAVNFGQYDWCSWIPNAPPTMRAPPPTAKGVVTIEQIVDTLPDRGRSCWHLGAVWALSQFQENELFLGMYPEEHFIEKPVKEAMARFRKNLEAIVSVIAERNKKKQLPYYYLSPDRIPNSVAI
Experimental: (§1) b) An in vitro assay system involving incubating a test compound with heparinised human blood, prior to challenge with the calcium ionophore A23187 and then indirectly measuring the inhibitory effects on 5-LO by assaying the amount of LTB4 using the specific radioimmunoassay described by Carey and Forder (F. Carey and R. A. Forder, Brit. J. Pharmacol. 1985, 84, 34P) which involves the use of a protein-LTB4 conjugate produced using the procedure of Young et alia (Prostaglandins, 1983, 26(4), 605-613). The effects of a test compound on the enzyme cyclooxygenase (which is involved in the alternative metabolic pathway for arachidonic acid .and gives rise to prostaglandins, thromboxanes and related metabolites) may be measured at the same time using the specific radioimmunoassay for thromboxane B2 (T×B2) described by Carey and Forder (see above). This test provides an indication of the effects of a test compound against 5-LO and also cyclooxgenase in the presence of blood cells and proteins. It permits the selectivity of the inhibitory effect on 5-LO or cyclooxygenase to be assessed.

[2] = molecular target: T2, cyclooxygenase (Homo sapiens, UniProt P23219); experiment: Test b) heparinised human blood challenged with A23187, TxB2 radioimmunoassay (cyclooxygenase); assay type: cell-based; conditions: A23187, T×B2
T2 construct: incubating a test compound with heparinised human blood, prior to challenge with the calcium ionophore A23187; endogenous in cells; host or cells: blood cells (chiefly platelets, own knowledge) in heparinised human whole blood
Experimental: as §1

[3] = system: 5-LO; experiment: Test c) ex vivo assay: administration of compound, blood collection, A23187 challenge, LTB4 radioimmunoassay; assay type: in vivo
Experimental: c) An ex vivo assay system, which is a variation of test b) above, involving administration of a test compound (usually orally as the suspension produced when a solution of the test compound in dimethylsulphoxide is added to carboxymethylcellulose), blood collection, heparinisation, challenge with A23187 and radioimmunoassay of LTB4 and T×B2. This test provides an indication of the bioavailability of a test compound as an inhibitor of 5-LO or cyclooxygenase.

T2 sequence (P23219 24-599): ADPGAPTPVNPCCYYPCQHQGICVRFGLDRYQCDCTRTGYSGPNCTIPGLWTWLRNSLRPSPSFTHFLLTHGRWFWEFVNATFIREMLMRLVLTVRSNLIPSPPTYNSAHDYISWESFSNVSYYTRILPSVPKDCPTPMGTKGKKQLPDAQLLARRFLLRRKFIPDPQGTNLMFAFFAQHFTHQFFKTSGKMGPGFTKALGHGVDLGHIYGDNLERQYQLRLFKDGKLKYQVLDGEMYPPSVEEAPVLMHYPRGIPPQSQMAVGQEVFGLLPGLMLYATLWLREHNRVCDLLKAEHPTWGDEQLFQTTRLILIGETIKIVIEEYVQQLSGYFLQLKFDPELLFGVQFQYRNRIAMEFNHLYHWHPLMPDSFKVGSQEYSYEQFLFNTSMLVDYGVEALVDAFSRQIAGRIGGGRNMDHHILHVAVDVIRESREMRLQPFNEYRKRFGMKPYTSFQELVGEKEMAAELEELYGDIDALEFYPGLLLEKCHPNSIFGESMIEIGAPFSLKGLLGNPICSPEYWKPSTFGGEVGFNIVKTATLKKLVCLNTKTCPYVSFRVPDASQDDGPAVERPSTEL

## CO[C@H]1CCC[C@@]1(OC)c1cccc(OCC#Cc2ccccn2)c1 (relative stereo) [trans-1,2-dimethoxy-1-[3-(3-(2-pyridyl)prop-2-yn-1-yloxy)phenyl]-cyclopentane]
[1]
  IC50: 8 µM
[2]
  IC50: > 40 µM
[3]
  oral ED50 against LTB4: < 100 mg/k
